Literature values as cited in patent publication US20180242917A1, “SYSTEMS AND METHODS FOR DETERMINING IMAGE QUALITY AND MODELS BASED ON CONTRAST INJECTION PROTOCOLS” (Duke University, priority 2015, published 2018).

Set-up: unit not given here
Details: used to calculate total EC fluid volume (18.9 L incl. 3 L plasma) for a 70-kg adult patient

Compound: CC(=O)N(CC(O)CO)c1c(I)c(C(=O)NCC(O)CO)c(I)c(C(=O)NCC(O)CO)c1I (stereo not shown) [iohexol]
- apparent volume value of distribution: 0.27
